Experimental data as given in the supplement of paper PMC8498969.

How the values were obtained:
[1] = system: HEK293; assay: IC50 for inhibition of ZIKV NS1 production
Protocol: (§1)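 HEK293 cells in 1536-well plates were pre-treated with compound for 1 h, infected with ZIKV (MOI 1) for 24 h, and NS1 antigen (intra- plus extracellular) was measured by TR-FRET. Confirmation used 11-point 1:3 dilutions, and IC50 and maximal inhibition were fitted in GraphPad Prism.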

[2] = system: HEK293; assay: maximal inhibition of ZIKV NS1 production (% inhibition); higher = stronger antiviral effect
Protocol: as §1

[3] = system: HEK293; assay: cytotoxicity IC50 (ATP content, uninfected cells); higher = less cytotoxic; conditions: infection: none

| Structure (SMILES) | IC50 [1] | maximal inhibition [2] | cytotoxicity IC50 [3] |
| --- | --- | --- | --- |
| CO[C@H]1C(=O)[C@]2(C)[C@@H](OC)C[C@H]3OC[C@@]3(OC(C)=O)[C@H]2[C@H](OC(=O)c2ccccc2)[C@]2(O)C[C@H](OC(=O)[C@H](O)[C@@H](NC(=O)OC(C)(C)C)c3ccccc3)C(C)=C1C2(C)C | 1.8 µM | 68 | > 100 µM |
| CC(C)c1nn(-c2c(Cl)cccc2Cl)c2nc(Cc3ccc(OCCO)cc3)[nH]c(=O)c12 | 0.27 µM | 91 | > 100 µM |
| Cc1nc(N)nc(N)c1-c1ccc(Cl)c(Cl)c1 | 2 µM | 102 | 1.5 µM |
| Cc1cc(C2CCCCC2)n(O)c(=O)c1 | 14 µM | 100 | 20 µM |
| C[C@H]1O[C@@H](O[C@H]2[C@@H](O)C[C@H](O[C@H]3[C@@H](O)C[C@H](O[C@H]4CC[C@@]5(C)[C@H](CC[C@@H]6[C@@H]5C[C@@H](O)[C@]5(C)[C@@H](C7=CC(=O)OC7)CC[C@]65O)C4)O[C@@H]3C)O[C@@H]2C)C[C@H](O)[C@@H]1O | 0.15 µM | 104 | 60 µM |
| COc1c(OCCCN2CCOCC2)ccc2c3n(c(=NC(=O)c4cnc(N)nc4)nc12)CCN3 | 2.1 µM | 71 | 22 µM |
| CC[C@@]1(O)C(=O)OCc2c1cc1n(c2=O)Cc2cc3cc(O)ccc3nc2-1 | 0.047 µM | 100 | > 100 µM |
| Cc1nc2cnc3ccc(C#Cc4cccnc4)cc3c2n1-c1ccc(C(C)(C)C#N)cc1 | 1.4 µM | 102 | 10 µM |
| O=C1CCc2ccc(OCCCCN3CCN(c4cccc(Cl)c4Cl)CC3)cc2N1 | 25 µM | 102 | 20 µM |
| CN1CC[C@H](c2c(O)cc(O)c3c(=O)cc(-c4ccccc4Cl)oc23)[C@H](O)C1 | 1.2 µM | 93 | > 100 µM |
| COc1ccc(OC)c(-c2nnc3ccc(-c4ccc(OC)c(O[C@@H]5CCOC5)c4)nn23)c1 | 40 µM | 42 | > 100 µM |
| C[C@@H]1O[C@@H](O[C@H]2C[C@@H](O)[C@]3(CO)[C@H]4[C@H](O)C[C@]5(C)[C@@H]([C@@H]6COC(=O)C6)CC[C@]5(O)[C@@H]4CC[C@]3(O)C2)[C@H](O)[C@H](O)[C@H]1O | 1.5 µM | 103 | 0.85 µM |
| Cc1ccc([N+](=O)[O-])[c]2c1[O][Hg]2 | 14 µM | 107 | 9 µM |
| CSc1cccc(Nc2ncc3cc(-c4c(Cl)cccc4Cl)c(=O)n(C)c3n2)c1 | 8.4 µM | 98 | 6.6 µM |
| N=C(N)NN=C(/C=C/c1ccc([N+](=O)[O-])o1)/C=C/c1ccc([N+](=O)[O-])o1 | 3.9 µM | 102 | 3.9 µM |
| CC(=O)Nc1ccc([C@H](C)C(=O)Nc2ncc(C(C)C)s2)cc1 | 7.4 µM | 90 | > 100 µM |
| Cn1c(=O)c(-c2c(Cl)cccc2Cl)cc2cnc(Nc3ccc(N4CCOCC4)cc3)nc21 | 2.1 µM | 102 | 6 µM |
| CC(=O)O[C@H]1C(=O)[C@@]2(C)[C@H]([C@H](OC(=O)c3ccccc3)[C@]3(O)C[C@H](OC(=O)[C@H](O)[C@@H](NC(=O)c4ccccc4)c4ccccc4)C(C)=C1C3(C)C)[C@]1(OC(C)=O)CO[C@@H]1C[C@@H]2O | 0.089 µM | 38 | > 100 µM |
| CN(C)CCN(C)C(=O)c1ccc(NC(=O)Nc2ccc(-c3nc(N4CCOCC4)c4ccn(CC(F)(F)F)c4n3)cc2)cc1 | 2.9 µM | 76 | 3.4 µM |
